What all share (assay): inhibition of tumour cell growth, NCI panel, 48 h
Test [1] concerns ACHN renal.
The subject of test [2] is HOP-62 NSCLC.
Test [3] has as its system M14 melanoma.
For test [4], the system named is NCI-H226 lung.
Test [5] relates to NCI-H460 lung.
Test [6] has as its system OVCAR-8 ovarian.
Test [7] has as its system UACC-257 melanoma.
Test [8] deals with UACC-62 melanoma.

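Assay format: 96-well plates, 48-hour exposure. At the GI50, growth is halved. TGI: concentration producing complete growth inhibition.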

Consider `CCOC(=O)/C=C/C(=O)[C@H](CC(C)C)NC(=O)[C@H](Cc1ccccc1)NC(=O)OCc1ccccc1`, for which the GI50 in test [1] is 2.36 µM; in test [2], 14.4 µM; in test [3] it was 3.54 µM; in test [4], 26.4 µM; in test [5], 16.2 µM; in test [6], 18.4 µM. The GI50 was 15 µM in test [7] and 3.99 µM in test [8]. For the same molecule, the TGI is 5.72 µM in test [1]; 29.6 µM in test [2]; 13.2 µM in test [3]; 60.4 µM in test [4]; 38.2 µM in test [5]; 60.4 µM in test [6]. Further, the TGI was determined as 29.2 µM in test [7] and 16.5 µM in test [8].

Consider `O=c1oc2ccc(-c3ccc(F)cc3F)cc2c(=O)n1-c1ccc(Cl)c(C(F)(F)F)c1`, for which the GI50 was 3.12 µM in test [1]; 1.93 µM in test [2]; 2.45 µM in test [3]; 2.03 µM in test [4]; 2.96 µM in test [5]; 2.99 µM in test [6]. Further, the GI50 in test [7] is 1.85 µM; in test [8], 1.55 µM. The TGI was 9.8 µM in test [1]; 4.09 µM in test [2]; 6.79 µM in test [3]; 6.11 µM in test [4]; above 100 µM in test [5]; above 100 µM in test [6]. Moreover, the figures for the TGI in test [7] and in test [8] were 6.44 µM and 4.15 µM, respectively.

With `COc1ccc(Cn2cc3c(c2-c2ccccc2)CCc2cnoc2-3)cc1N`, the GI50 was 1.11 µM in test [1]; 0.433 µM in test [2]; 0.227 µM in test [3]; 2.24 µM in test [4]; 0.115 µM in test [5]; 0.468 µM in test [6]. Moreover, the GI50 in test [7] is 10.2 µM; in test [8], 0.182 µM. The TGI in test [1] was above 100 µM; in test [2] it was above 100 µM; in test [3], above 100 µM; in test [4] it was above 100 µM; in test [5], 1.66 µM; in test [6] it was above 100 µM. The TGI in test [7] and in test [8] was above 100 µM each time.

As to `O=C(CC(=O)c1cccc(Cl)c1)c1cccc(Cl)c1`, the GI50 is 2.71 µM in test [1]; 2.59 µM in test [2]; 2.35 µM in test [3]; 2.88 µM in test [4]; 0.95 µM in test [5]; 2.6 µM in test [6]. The GI50 in test [7] is 5.99 µM; in test [8], 2.82 µM. Also, the TGI in test [1], in test [2], in test [3], in test [4], in test [5] and in test [6] was above 100 µM each time. The TGI in test [7] and in test [8] was above 100 µM each time.

For the molecule `Oc1[nH]c2ccccc2c1N=Nc1c(F)c(F)c(F)c(F)c1F`, the TGI is 36.8 µM in test [1]; above 100 µM in test [2]; above 100 µM in test [3]; above 100 µM in test [4]; above 100 µM in test [5]; above 100 µM in test [6]. In addition, the TGI in test [7] was above 71.5 µM; in test [8] it was above 100 µM.

As to `COc1ccc(C2C=C(c3ccc(Cl)cc3)N=C3SC=C(C)N32)c(Br)c1` (centres undefined), the GI50 in test [1] is 3.64 µM; in test [2], 3.96 µM; in test [3], 3.99 µM; in test [4], 11.4 µM; in test [5], 2.24 µM; in test [6], 3.32 µM. Further, the GI50 is 4.42 µM in test [7] and 3.8 µM in test [8]. Moreover, the TGI is 17.4 µM in test [1]; 13.4 µM in test [2]; 15.7 µM in test [3]; above 100 µM in test [4]; 5.87 µM in test [5]; 50.7 µM in test [6]. Moreover, the TGI worked out at 18.8 µM in test [7] and 15.7 µM in test [8].

Turning to `Clc1ccccc1C(Nc1ncccn1)Nc1ncccn1`, the TGI in test [1], in test [2], in test [3], in test [4], in test [5] and in test [6] was above 100 µM each time. The TGI in test [7] and in test [8] was above 100 µM each time.

Take `O=C(Nc1ccccc1O)c1ccc(NS(=O)(=O)c2cccc3cccnc23)cc1`: the GI50 in test [1] is 1.21 µM; in test [2] it was 0.855 µM; in test [3] it was 1.18 µM; in test [4], 2.36 µM; in test [5], 1.05 µM; in test [6] it was 0.665 µM. The results for the GI50 in test [7] and in test [8] were 0.571 µM and 0.539 µM, respectively. In addition, the TGI in test [1] worked out at 5.78 µM; in test [2] it was 7.33 µM; in test [3], 5.61 µM; in test [4], 7.27 µM; in test [5], 7.28 µM; in test [6], 7.25 µM. Also, the TGI stood at 5.25 µM in test [7] and 3.49 µM in test [8].

As to `NC(=S)N=Nc1c(O)c2ccccc2c2ccccc12`, the GI50 in test [1] was 8.07 µM; in test [2], 2.31 µM; in test [3], 1.78 µM; in test [4], 21.3 µM; in test [5], 3.23 µM; in test [6], 4.32 µM. Also, the GI50 in test [7] is 1.72 µM; in test [8], 1.69 µM. Also, the TGI in test [1] was above 100 µM; in test [2], 7.87 µM; in test [3] it was 3.35 µM; in test [4] it was 70.1 µM; in test [5], 11.6 µM; in test [6] it was 22.7 µM. In addition, the TGI in test [7] is 3.31 µM; in test [8], 3.19 µM.

`CC(=O)c1cc(C(=O)c2ccc3c(c2)Sc2ccccc2N3)c2c(C)cccn12`: the GI50 was 1.42 µM in test [1]; 0.25 µM in test [2]; 0.198 µM in test [3]; 1.95 µM in test [4]; 0.213 µM in test [5]; 0.374 µM in test [6]. Also, the results for the GI50 in test [7] and in test [8] were 2.39 µM and 0.145 µM, respectively. Moreover, the TGI in test [1] was above 100 µM; in test [2] it was 36.9 µM; in test [3] it was 5.5 µM; in test [4] it was above 52.3 µM; in test [5] it was 4.76 µM; in test [6], above 31.8 µM. Further, the TGI in test [7] was above 100 µM; in test [8], 38.1 µM.

These data come from PubChem BioAssay (NCI).
